Earlier results as cited in patent publication US20070014883A1, “Method for treating osteoarthritis” (priority 2005, published 2007).
Entries after “also recorded” stand apart in the source; their conditions may differ.

What was measured:
MMP-1 = target: T1, MMP-1 (Homo sapiens, UniProt P03956); conditions: reference 24
T1 sequence (P03956 100-469): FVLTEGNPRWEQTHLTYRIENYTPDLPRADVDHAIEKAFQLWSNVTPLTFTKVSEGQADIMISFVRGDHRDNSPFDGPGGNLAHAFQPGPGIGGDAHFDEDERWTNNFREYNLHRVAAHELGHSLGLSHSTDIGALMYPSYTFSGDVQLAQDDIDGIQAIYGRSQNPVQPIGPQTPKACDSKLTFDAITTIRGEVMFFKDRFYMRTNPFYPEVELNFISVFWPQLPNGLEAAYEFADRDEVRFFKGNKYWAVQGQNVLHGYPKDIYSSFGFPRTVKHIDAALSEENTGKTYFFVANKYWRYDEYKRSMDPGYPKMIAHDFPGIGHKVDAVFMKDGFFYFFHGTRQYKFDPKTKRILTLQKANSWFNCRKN

MMP-9 = MMP-9 (Homo sapiens, UniProt P14780); conditions: for Inhibitory activity against MMP-9, potency relative to captopril: more potent than captopril; for Inhibition of MMP-9: reference 24
MMP-2 = target: T2, MMP-2 (Homo sapiens, UniProt P08253); conditions: for Inhibitory activity against MMP-2, potency relative to captopril: more potent than captopril; for Inhibition of MMP-2: reference 24
T2 sequence (P08253 110-660): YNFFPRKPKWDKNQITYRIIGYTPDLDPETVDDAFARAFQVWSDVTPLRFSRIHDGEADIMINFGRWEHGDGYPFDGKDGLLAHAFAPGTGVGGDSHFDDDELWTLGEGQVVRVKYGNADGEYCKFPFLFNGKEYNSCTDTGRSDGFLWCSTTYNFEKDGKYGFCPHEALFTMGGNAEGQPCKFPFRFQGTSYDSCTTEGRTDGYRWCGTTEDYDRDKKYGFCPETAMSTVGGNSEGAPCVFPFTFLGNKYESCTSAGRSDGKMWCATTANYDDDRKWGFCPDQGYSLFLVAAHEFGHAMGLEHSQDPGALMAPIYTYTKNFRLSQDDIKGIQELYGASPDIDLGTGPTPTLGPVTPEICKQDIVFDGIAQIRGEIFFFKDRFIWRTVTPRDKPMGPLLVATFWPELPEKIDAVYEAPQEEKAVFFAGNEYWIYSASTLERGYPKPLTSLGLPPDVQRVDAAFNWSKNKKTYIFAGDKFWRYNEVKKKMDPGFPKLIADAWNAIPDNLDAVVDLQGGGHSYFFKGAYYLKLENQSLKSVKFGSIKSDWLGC

Sequence of MMP-9 (P14780 94-707, species assumed): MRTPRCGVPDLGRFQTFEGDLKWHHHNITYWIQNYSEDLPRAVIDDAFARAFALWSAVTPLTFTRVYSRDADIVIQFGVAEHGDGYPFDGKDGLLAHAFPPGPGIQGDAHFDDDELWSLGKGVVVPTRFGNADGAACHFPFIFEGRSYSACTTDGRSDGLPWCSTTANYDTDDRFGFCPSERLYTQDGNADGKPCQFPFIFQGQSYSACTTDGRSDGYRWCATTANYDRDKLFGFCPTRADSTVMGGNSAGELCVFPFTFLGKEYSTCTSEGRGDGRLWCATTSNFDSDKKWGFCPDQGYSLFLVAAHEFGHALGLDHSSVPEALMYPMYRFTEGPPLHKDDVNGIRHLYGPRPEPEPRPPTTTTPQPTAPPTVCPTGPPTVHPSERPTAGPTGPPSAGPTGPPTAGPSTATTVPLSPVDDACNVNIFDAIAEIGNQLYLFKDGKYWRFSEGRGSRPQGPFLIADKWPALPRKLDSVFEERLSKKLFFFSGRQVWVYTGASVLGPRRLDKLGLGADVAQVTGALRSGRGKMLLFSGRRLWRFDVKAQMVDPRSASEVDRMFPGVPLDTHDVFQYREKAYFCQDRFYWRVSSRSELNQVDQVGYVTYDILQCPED

Inhibitory activity against MMP-9, potency relative to captopril (MMP-9) [fold] | Inhibitory activity against MMP-2, potency relative to captopril (MMP-2) [fold] | SMILES | Inhibition of MMP-1 (MMP-1) | Inhibition of MMP-9 (MMP-9) | Inhibition of MMP-2 (MMP-2)
100 | 100 | O=C1CCC(Cc2ccc(O)c(O)c2)O1 (stereo not shown) [M1, δ-(3,4-dihydroxy-phenyl)-γ-valerolactone] | strong inhibitory activity; also recorded: more potent than the parent molecules | strong inhibitory activity; also recorded: more potent than the parent molecules | strong inhibitory activity; also recorded: more potent than the parent molecules
100 | 100 | COc1cc(CC2CCC(=O)O2)ccc1O (stereo not shown) [M2, δ-(3-methoxy-4-hydroxyphenyl)-γ-valerolactone] | strong inhibitory activity; also recorded: more potent than the parent molecules | strong inhibitory activity; also recorded: more potent than the parent molecules | strong inhibitory activity; also recorded: more potent than the parent molecules
